Measured values published in patent publication US6914045B2, “Glycopeptide antibiotics” (Wyeth Holdings Corporation, priority 2001, dated 2005).
Values after ≈ are worked out from the molar mass of the structure shown.

What was measured:
Assay in all cases: in vitro antibacterial evaluation, MIC by broth dilution
Assay type in all cases: cell-based
Enterococcus sp. = details: broth dilution, 18 hours at 35° C.
Protocol: (§1) Methods for in vitro Antibacterial Evaluation (Table 1)
(§2) The minimum inhibitory concentration (MIC), the lowest concentration of the antibiotic which inhibits growth of the test organism, is determined by the broth dilution method using Muller-Hinton II […] (Baltimore Biological Laboratories) following the recommendations of the National Committee for Clinical Laboratory Standards [Methods for dilution antimicrobial susceptibility tests for bacteria that grow aerobically, approved standard M7-A2, National Committee for Clinical Laboratory Standards, Villanova, Pa.].
(§3) An inoculum level of 5×10^5 CFU/mL, and a range of antibiotic concentrations (64-0.06 μg/mL) is used. […] The test organisms include a spectrum of Gram-positive bacteria comprised of Staphylococcus sp., Streptococcus sp. and Enterococcus sp. These organisms include recent clinical isolates that are resistant to methicillin, penicillin and/or vancomycin.

Staphylococcus sp. = details: broth dilution, 18 hours at 35° C.; for MIC Staphylococcus aureus (ATCC 29213): strain ATCC 29213; for MIC Staphylococcus aureus (GC 1131): strain GC 1131; for MIC Staphylococcus aureus (GC 3051): strain GC 3051; for MIC Staphylococcus aureus (GC 3053): strain GC 3053; for MIC Staphylococcus aureus (GC 4541): strain GC 4541; for MIC Staphylococcus aureus (GC 4542): strain GC 4542; for MIC Staphylococcus aureus-SMITH (GC 4543): strain GC 4543; for MIC Staphylococcus aureus (GC 4544): strain GC 4544; for MIC Staphylococcus aureus (GC 4545): strain GC 4545; for MIC Staphylococcus haemolyticus (GC 4546): strain GC 4546; for MIC Coagulase Negative Staphylococcus (GC 4547): strain GC 4547; for MIC Coagulase Negative Staphylococcus (GC 4548): strain GC 4548; for MIC Coagulase Negative Staphylococcus (GC 4549): strain GC 4549; for MIC Coagulase Negative Staphylococcus (GC 4551): strain GC 4551
Protocol: as §1, §2, §3

Streptococcus sp. = details: broth dilution, 18 hours at 35° C.
Protocol: as §1, §2, §3

Escherichia coli = details: 18 hours at 35° C.

SMILES: N=C1NCC(C(O)C2NC(=O)C(CC3CCC(OC4OC(CO)C(OC5OC6COC7(OC6C(O)C5O)C5CC6CC(C5)CC7C6)C(O)C4O)CC3)NC(=O)C(CC3CCCCC3)NC(=O)CNC(=O)C(CO)NC(=O)C(C(O)C3CNC(=N)N3C3OC(CO)C(O)C(O)C3O)NC2=O)N1 (single isomer, unassigned) [Example 222]
- MIC Enterococcus avium (GC 4558) (Enterococcus sp.): 64 µg/mL (≈ 44.9 µM)
- MIC Enterococcus faecalis (ATCC 29212) (Enterococcus sp.): >64 µg/mL
- MIC Enterococcus faecalis (GC 2242) (Enterococcus sp.): >64 µg/mL
- MIC Enterococcus faecalis (GC 2691) (Enterococcus sp.): >64 µg/mL
- MIC Enterococcus faecalis (GC 3059) (Enterococcus sp.): >64 µg/mL
- MIC Enterococcus faecalis (GC 4552) (Enterococcus sp.): >64 µg/mL
- MIC Enterococcus faecalis (GC 4553) (Enterococcus sp.): >64 µg/mL
- MIC Enterococcus faecalis (GC 4554) (Enterococcus sp.): >64 µg/mL
- MIC Enterococcus faecalis (GC 6189) (Enterococcus sp.): >64 µg/mL
- MIC Enterococcus faecium (GC 2243) (Enterococcus sp.): >64 µg/mL
- MIC Enterococcus faecium (GC 4556) (Enterococcus sp.): >64 µg/mL
- MIC Enterococcus faecium (GC 4557) (Enterococcus sp.): 64 µg/mL (≈ 44.9 µM)
- MIC Enterococcus faecalis (ATCC 29212) (Enterococcus sp.; inoculum 5×10^5 CFU/mL, strain ATCC 29212): >64 µg/mL
- MIC Enterococcus faecalis (GC 2242) (Enterococcus sp.; inoculum 5×10^5 CFU/mL, strain GC 2242): >64 µg/mL
- MIC Enterococcus faecium (GC 2243) (Enterococcus sp.; inoculum 5×10^5 CFU/mL, strain GC 2243): >64 µg/mL
- MIC Enterococcus faecalis (GC 2691) (Enterococcus sp.; inoculum 5×10^5 CFU/mL, strain GC 2691): >64 µg/mL
- MIC Enterococcus faecalis (GC 3059) (Enterococcus sp.; inoculum 5×10^5 CFU/mL, strain GC 3059): >64 µg/mL
- MIC Enterococcus faecalis (GC 4552) (Enterococcus sp.; inoculum 5×10^5 CFU/mL, strain GC 4552): >64 µg/mL
- MIC Enterococcus faecalis (GC 4553) (Enterococcus sp.; inoculum 5×10^5 CFU/mL, strain GC 4553): >64 µg/mL
- MIC Enterococcus faecalis (GC 4554) (Enterococcus sp.; inoculum 5×10^5 CFU/mL, strain GC 4554): >64 µg/mL
- MIC Enterococcus faecium (GC 4556) (Enterococcus sp.; inoculum 5×10^5 CFU/mL, strain GC 4556): >64 µg/mL
- MIC Enterococcus faecium (GC 4557) (Enterococcus sp.; inoculum 5×10^5 CFU/mL, strain GC 4557): 64 µg/mL (≈ 44.9 µM)
- MIC Enterococcus avium (GC 4558) (Enterococcus sp.; inoculum 5×10^5 CFU/mL, strain GC 4558): 64 µg/mL (≈ 44.9 µM)
- MIC Enterococcus faecalis (GC 6189) (Enterococcus sp.; inoculum 5×10^5 CFU/mL, strain GC 6189): >64 µg/mL
- MIC Staphylococcus aureus (ATCC 29213) (Staphylococcus sp.): >64 µg/mL
- MIC Staphylococcus aureus (GC 1131) (Staphylococcus sp.): >64 µg/mL
- MIC Staphylococcus aureus (GC 3051) (Staphylococcus sp.): >64 µg/mL
- MIC Staphylococcus aureus (GC 3053) (Staphylococcus sp.): >64 µg/mL
- MIC Staphylococcus aureus (GC 4541) (Staphylococcus sp.): >64 µg/mL
- MIC Staphylococcus aureus (GC 4542) (Staphylococcus sp.): >64 µg/mL
- MIC Staphylococcus aureus-SMITH (GC 4543) (Staphylococcus sp.): >64 µg/mL
- MIC Staphylococcus aureus (GC 4544) (Staphylococcus sp.): >64 µg/mL
- MIC Staphylococcus aureus (GC 4545) (Staphylococcus sp.): >64 µg/mL
- MIC Staphylococcus haemolyticus (GC 4546) (Staphylococcus sp.): >64 µg/mL
- MIC Coagulase Negative Staphylococcus (GC 4547) (Staphylococcus sp.): >64 µg/mL
- MIC Coagulase Negative Staphylococcus (GC 4548) (Staphylococcus sp.): >64 µg/mL
- MIC Coagulase Negative Staphylococcus (GC 4549) (Staphylococcus sp.): >64 µg/mL
- MIC Coagulase Negative Staphylococcus (GC 4551) (Staphylococcus sp.): >64 µg/mL
- MIC Streptococcus agalactiae (GC 4564) (Streptococcus sp.): >64 µg/mL
- MIC Streptococcus pneumoniae (ATCC 6301) (Streptococcus sp.): 64 µg/mL (≈ 44.9 µM)
- MIC Streptococcus pneumoniae (GC 1894) (Streptococcus sp.): 32 µg/mL (≈ 22.4 µM)
- MIC Streptococcus pneumoniae (GC 4565) (Streptococcus sp.): 64 µg/mL (≈ 44.9 µM)
- MIC Streptococcus pyogenes (GC 4563) (Streptococcus sp.): 64 µg/mL (≈ 44.9 µM)
- MIC Streptococcus pneumoniae (ATCC 6301) (Streptococcus sp.; inoculum 5×10^5 CFU/mL, strain ATCC 6301): 64 µg/mL (≈ 44.9 µM)
- MIC Streptococcus pneumoniae (GC 1894) (Streptococcus sp.; inoculum 5×10^5 CFU/mL, strain GC 1894): 32 µg/mL (≈ 22.4 µM)
- MIC Streptococcus pyogenes (GC 4563) (Streptococcus sp.; inoculum 5×10^5 CFU/mL, strain GC 4563): 64 µg/mL (≈ 44.9 µM)
- MIC Streptococcus agalactiae (GC 4564) (Streptococcus sp.; inoculum 5×10^5 CFU/mL, strain GC 4564): >64 µg/mL
- MIC Streptococcus pneumoniae (GC 4565) (Streptococcus sp.; inoculum 5×10^5 CFU/mL, strain GC 4565): 64 µg/mL (≈ 44.9 µM)
- MIC Escherichia coli (ATCC 25922) (Escherichia coli): >64 µg/mL
- MIC Escherichia coli (GC 4559) (Escherichia coli): >64 µg/mL
- MIC Escherichia coli (GC 4560) (Escherichia coli): 64 µg/mL (≈ 44.9 µM)

SMILES: COc1cc(-c2nc3cc(CC4NC(=O)C(C(C)c5ccccc5)NC(=O)CNC(=O)C(CO)NC(=O)C(C(O)C5CNC(=N)N5C5OC(CO)C(O)C(O)C5O)NC(=O)C(C(O)C5CNC(=N)N5)NC4=O)ccc3o2)cc(OC)c1OC (stereo not drawn) [Example 34, Cyclo[3-[2-(3,4,5-trimethoxyphenyl)-1,3-benzoxazol-5-yl]alanyl-3-(2-iminoimidazolidin-4-yl)seryl-3-(3-hexopyranosyl-2-iminoimidazolidin-4-yl)serylserylglycyl-β-methylphenyl-alanyl]]
- MIC Enterococcus faecalis (ATCC 29212) (Enterococcus sp.; strain ATCC 29212): 64 µg/mL (≈ 55.1 µM)
- MIC Enterococcus faecalis (GC 2242) (Enterococcus sp.; strain GC 2242): 32 µg/mL (≈ 27.5 µM)
- MIC Enterococcus faecium (GC 2243) (Enterococcus sp.; strain GC 2243): 32 µg/mL (≈ 27.5 µM)
- MIC Enterococcus faecalis (GC 2691) (Enterococcus sp.; strain GC 2691): 32 µg/mL (≈ 27.5 µM)
- MIC Enterococcus faecalis (GC 3059) (Enterococcus sp.; strain GC 3059): 32 µg/mL (≈ 27.5 µM)
- MIC Enterococcus faecalis (GC 4552) (Enterococcus sp.; strain GC 4552): 32 µg/mL (≈ 27.5 µM)
- MIC Enterococcus faecalis (GC 4553) (Enterococcus sp.; strain GC 4553): 32 µg/mL (≈ 27.5 µM)
- MIC Enterococcus faecalis (GC 4554) (Enterococcus sp.; strain GC 4554): 32 µg/mL (≈ 27.5 µM)
- MIC Enterococcus faecium (GC 4556) (Enterococcus sp.; strain GC 4556): 64 µg/mL (≈ 55.1 µM)
- MIC Enterococcus faecium (GC 4557) (Enterococcus sp.; strain GC 4557): 8 µg/mL (≈ 6.88 µM)
- MIC Enterococcus avium (GC 4558) (Enterococcus sp.; strain GC 4558): 16 µg/mL (≈ 13.8 µM)
- MIC Enterococcus faecalis (GC 6189) (Enterococcus sp.; strain GC 6189): 64 µg/mL (≈ 55.1 µM)
- MIC Staphylococcus aureus (ATCC 29213) (Staphylococcus sp.): 32 µg/mL (≈ 27.5 µM)
- MIC Staphylococcus aureus (GC 1131) (Staphylococcus sp.): 32 µg/mL (≈ 27.5 µM)
- MIC Staphylococcus aureus (GC 3051) (Staphylococcus sp.): 16 µg/mL (≈ 13.8 µM)
- MIC Staphylococcus aureus (GC 3053) (Staphylococcus sp.): 32 µg/mL (≈ 27.5 µM)
- MIC Staphylococcus aureus (GC 4541) (Staphylococcus sp.): 32 µg/mL (≈ 27.5 µM)
- MIC Staphylococcus aureus (GC 4542) (Staphylococcus sp.): 32 µg/mL (≈ 27.5 µM)
- MIC Staphylococcus aureus-SMITH (GC 4543) (Staphylococcus sp.): 16 µg/mL (≈ 13.8 µM)
- MIC Staphylococcus aureus (GC 4544) (Staphylococcus sp.): 16 µg/mL (≈ 13.8 µM)
- MIC Staphylococcus aureus (GC 4545) (Staphylococcus sp.): 32 µg/mL (≈ 27.5 µM)
- MIC Staphylococcus haemolyticus (GC 4546) (Staphylococcus sp.): 8 µg/mL (≈ 6.88 µM)
- MIC Coagulase Negative Staphylococcus (GC 4547) (Staphylococcus sp.): 16 µg/mL (≈ 13.8 µM)
- MIC Coagulase Negative Staphylococcus (GC 4548) (Staphylococcus sp.): 16 µg/mL (≈ 13.8 µM)
- MIC Coagulase Negative Staphylococcus (GC 4549) (Staphylococcus sp.): 4 µg/mL (≈ 3.44 µM)
- MIC Coagulase Negative Staphylococcus (GC 4551) (Staphylococcus sp.): 32 µg/mL (≈ 27.5 µM)
- MIC Coagulase Negative Staphylococcus (GC 6257) (Staphylococcus sp.; strain GC 6257): 8 µg/mL (≈ 6.88 µM)
- MIC Streptococcus pneumoniae (ATCC 6301) (Streptococcus sp.; strain ATCC 6301): 32 µg/mL (≈ 27.5 µM)
- MIC Streptococcus pneumoniae (GC 1894) (Streptococcus sp.; strain GC 1894): 16 µg/mL (≈ 13.8 µM)
- MIC Streptococcus pyogenes (GC 4563) (Streptococcus sp.; strain GC 4563): 8 µg/mL (≈ 6.88 µM)
- MIC Streptococcus agalactiae (GC 4564) (Streptococcus sp.; strain GC 4564): 32 µg/mL (≈ 27.5 µM)
- MIC Streptococcus pneumoniae (GC 4565) (Streptococcus sp.; strain GC 4565): 32 µg/mL (≈ 27.5 µM)
- MIC Escherichia coli (ATCC 25922) (Escherichia coli; strain ATCC 25922, broth dilution): 64 µg/mL (≈ 55.1 µM)
- MIC Escherichia coli (GC 4559) (Escherichia coli; strain GC 4559, broth dilution): 64 µg/mL (≈ 55.1 µM)
- MIC Escherichia coli (GC 4560) (Escherichia coli; strain GC 4560, broth dilution): 16 µg/mL (≈ 13.8 µM)
